SMILES strings stand for the structures. pKi: −log10 of the molar value.

In one test the target is thymidine kinase (Oryctolagus cuniculus). The test can be described thus: Inhibitory affect against rabbit thymus thymidine kinase.
Compound `O=c1ccn([C@H]2C=C[C@@H](CO)O2)c(=O)[nH]1` showed a pKi of 3.35. `O=c1[nH]c(=S)ccn1[C@H]1C=C[C@@H](CO)O1` showed a pKi of 2.77.

`O=c1[nH]c(=S)ccn1[C@H]1CC[C@@H](CO)O1` had a pKi of 2.89.

The next test shares this target. The description is as above. The source holds these as a separate data set.
The compound `Cc1cn([C@H]2CC[C@@H](CO)O2)c(=O)[nH]c1=S` showed a pKi of 2.80. The same measure, in the same setting: under `Cc1cn([C@H]2C=C[C@@H](CO)O2)c(=O)[nH]c1=S` stands 2.77; under `Cc1cn([C@H]2C[C@H](N=[N+]=[N-])[C@@H](CO)O2)c(=O)[nH]c1=S`, 4.27.

Usually pKi stands for −log10 of the Ki, conventionally taken in molar units.

These data come from BindingDB's records for doi:10.1021/jm00163a043 (Michigan Cancer Foundation, 1990).
